According to ChEMBL document CHEMBL6114981, “Research progress of flavonoids targeting estrogen receptor in the treatment of breast cancer” (Bioorg Med Chem, 2025):
One block for each compound: values may come before it.

Legend:
Aromatase = biological target: T1, Aromatase (Homo sapiens, UniProt P11511); assay: Binding affinity to human placental aromatase in MCF7 cells assessed as inhibition constant
T1 sequence (P11511 whole entry): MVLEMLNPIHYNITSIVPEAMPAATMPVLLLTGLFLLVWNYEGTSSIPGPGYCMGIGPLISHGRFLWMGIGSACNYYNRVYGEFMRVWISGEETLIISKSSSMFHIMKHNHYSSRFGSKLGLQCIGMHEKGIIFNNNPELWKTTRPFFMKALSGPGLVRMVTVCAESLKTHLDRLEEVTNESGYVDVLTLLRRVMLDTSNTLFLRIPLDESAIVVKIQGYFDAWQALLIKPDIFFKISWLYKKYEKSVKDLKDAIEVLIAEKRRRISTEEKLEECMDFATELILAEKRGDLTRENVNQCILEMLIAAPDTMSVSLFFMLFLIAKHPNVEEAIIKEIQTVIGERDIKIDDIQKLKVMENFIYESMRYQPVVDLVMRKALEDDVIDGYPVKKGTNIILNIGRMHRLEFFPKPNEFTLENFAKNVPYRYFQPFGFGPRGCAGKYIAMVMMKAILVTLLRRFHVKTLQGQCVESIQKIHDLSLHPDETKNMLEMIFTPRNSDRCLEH

MCF7 [1] = assay: Cytotoxicity against human MCF7 cells
MCF7 [2] = assay: Antiproliferative activity against human MCF7 cells
MCF7 [3] = assay: Cytotoxicity against human MCF7 cells assessed as reduction in cell viability incubated for 24 hrs by MTT assay; settings: MCF7, 24 h
[4] = Downregulation of ERalpha expression in human MCF7 cells measured for 24 hrs by Western blot analysis; settings: MCF7, 24 h
MCF7 [5] = assay: Antiproliferative activity against human MCF-7 cells assessed as reduction in cell viability incubated for 48 hrs by MTT assay; settings: MCF7, 48 h
MCF7 [6] = assay: Antiproliferative activity against human MCF7 cells assessed as reduction in cell viability by MTT assay
MDA-MB-231 = assay: Antiproliferative activity against human MDA-MB-231 cells assessed as reduction in cell viability by MTT assay
HEK-293T = assay: Cytotoxicity against HEK293T cells; settings: Homo sapiens
Ishikawa = assay: Antiproliferative activity against human Ishikawa cells assessed as reduction in cell viability incubated for 48 hrs by MTT assay

Ki (Aromatase): 10800 nM
SMILES: O=C1C[C@@H](c2ccccc2)Oc2cc(O)cc(O)c21 [PINOCEMBRIN]

Ki (Aromatase): 1200 nM
SMILES: COc1cc(O)c2c(c1)OC(c1ccc(O)cc1)CC2=O (single isomer, unassigned) [SAKURANETIN]

IC50 (MCF7 [2]): 2720 nM
SMILES: CN1CCN(c2ccc(-c3cc(=O)c4ccccc4o3)cc2)CC1

IC50 [4]: 100 nM
SMILES: COc1ccc(C(=O)C2=C(Oc3ccc(/C=C/C(=O)O)cc3)c3ccc(O)cc3OC2)cc1

IC50 [4]: 3 nM
SMILES: Cc1cc(OC(F)(F)F)ccc1-c1c(Oc2ccc(/C=C/C(=O)O)cc2)c2ccc(O)cc2oc1=O

Ki (Aromatase): 2100 nM
SMILES: COc1ccc(-c2cc(=O)c3c(O)cc(OC)cc3o2)cc1 [APIGENIN DIMETHYLETHER]

IC50 (MCF7 [2]): 0.32 nM
SMILES: CC1=C(c2ccc(O)cc2)[C@H](c2ccc(OCCN3CCCCC3)cc2)Oc2cc(O)ccc21 [ACOLBIFENE]

IC50 (MCF7 [2]): 0.58 nM
SMILES: CC1=C(c2ccc(OC(=O)C(C)(C)C)cc2)[C@H](c2ccc(OCCN3CCCCC3)cc2)Oc2cc(OC(=O)C(C)(C)C)ccc21

IC50 [4]: 1180 nM
SMILES: O=C(O)/C=C/c1ccc(Cc2c(-c3ccccc3)c(=O)oc3cc(O)ccc23)cc1

Second part, the compound before the results:

SMILES: COc1cc(O)c2c(=O)cc(-c3ccc(OC)c(-c4c(O)cc(O)c5c(=O)cc(-c6ccc(O)cc6)oc45)c3)oc2c1 [GINKGETIN]
IC50 (MCF7 [1]): 10000 nM

SMILES: CC1=C(c2cc(F)cc(F)c2)[C@@H](c2ccc(/C=C/CN3CC(CF)C3)cc2)Oc2cc(O)ccc21
IC50 (MCF7 [3]): 69.9 nM

SMILES: C=C(C)[C@H]1Cc2c(ccc3c2O[C@@H]2COc4cc(OC)c(OC)cc4[C@@H]2C3=O)O1 [ROTENONE]
Ki (Aromatase): 300 nM

SMILES: O=c1oc2cc(O)ccc2c(Oc2ccc(OCCN3CCCCC3)cc2)c1-c1ccc(F)cc1
IC50 (MCF7 [5]): 2190 nM

SMILES: COc1ccc(-c2c(C(=O)c3ccc(OCCN4CCCCC4)cc3)c3ccc(OC)cc3oc2=O)cc1
IC50 (MCF7 [6]): 5700 nM | IC50 (MDA-MB-231): 12700 nM

SMILES: O=c1c(O)c(-c2ccc(O)c(O)c2)oc2cc(O)cc(O)c12 [QUERCETIN]
IC50 (HEK-293T): 1200 nM

SMILES: O=c1c(O)c(-c2ccc(O)c(O)c2)oc2cc(O)ccc12 [FISETIN]
IC50 (MCF7 [1]): 8500 nM

SMILES: Cc1cc(OC(F)(F)F)ccc1-c1c(Oc2ccc(/C=C/C(=O)O)cc2)c2ccccc2oc1=O
IC50 [4]: 810 nM

SMILES: CC1=C(c2cc(F)cc(F)c2)[C@H](c2ccc(/C=C/CN3CC(CF)C3)cc2)Oc2cc(O)ccc21 [BEXIRESTRANT]
IC50 (MCF7 [3]): 0.3 nM

SMILES: C[C@@H]1OC(Oc2cc(O)c3c(=O)c(O[C@H]4OC[C@@](O)(CO)[C@@H]4O)c(-c4ccc(O)cc4)oc3c2)[C@H](O)[C@H](O)[C@H]1O (stereo partly specified)
IC50 (MCF7 [3]): 48 nM

SMILES: COc1cc2c(cc1C(=O)c1ccc(OCCN3CCCCC3)cc1)C=C(c1ccccc1)C(C)(C)O2
IC50 (Ishikawa): 17700 nM
